# In ChEMBL document CHEMBL3784999, “Investigation of 4-amino-5-alkynylpyrimidine-2(1H)-ones as anti-mycobacterial agents” (Bioorg Med Chem, 2016):
# Calls of active or inactive are those of the source. No cut-off for these calls is given here.
# How the values were obtained:
# [1] = Cytotoxicity against African green monkey Vero cells assessed as cell viability after 3 days by XTT assay; assay type: cell-based; conditions: chlorocebus sabaeus
# [2] = test system: Mycobacterium tuberculosis; test: Antimycobacterial activity against Mycobacterium tuberculosis H37Ra assessed as inhibition of mycobacterial replication after 6 days by microplate Alamar blue assay; assay type: functional; conditions: 144 h
# [3] = test system: Mycobacterium tuberculosis; test: Antimycobacterial activity against Mycobacterium tuberculosis H37Ra assessed as inhibition of mycobacterial replication at 200 ug/ml after 6 days by microplate Alamar blue assay; assay type: functional; conditions: 144 h
# [4] = test system: Mycobacterium tuberculosis; test: Antimycobacterial activity against Mycobacterium tuberculosis H37Ra assessed as inhibition of mycobacterial replication at 50 ug/ml after 6 days by microplate Alamar blue assay; assay type: functional; conditions: 144 h
# [5] = test system: Mycobacterium tuberculosis; test: Antimycobacterial activity against Mycobacterium tuberculosis H37Ra infected in BALB/c mouse assessed as reduction of bacterial load in lung at 12.5 mg/kg, po administered for 2 weeks started on day 4 post bacterial infection measured 3 days post last dose co-treated with 1 mg/kg, po isoniazid; assay type: functional
# [6] = test system: Mus musculus; test: Toxicity in BALB/c mouse infected with Mycobacterium tuberculosis H37Ra assessed as behavioral changes at 6.25 to 25 mg/kg, po administered for 2 weeks started on day 4 post bacterial infection; assay type: organism-based; conditions: in vivo, 336 h
# [7] = test system: Mus musculus; test: Toxicity in BALB/c mouse infected with Mycobacterium tuberculosis H37Ra assessed as change in cholesterol level in serum at 6.25 to 25 mg/kg, po administered for 2 weeks started on day 4 post bacterial infection in presence of isoniazid; assay type: organism-based; conditions: in vivo, 336 h
# [8] = test system: Mus musculus; test: Toxicity in BALB/c mouse infected with Mycobacterium tuberculosis H37Ra at 6.25 to 25 mg/kg, po administered for 2 weeks started on day 4 post bacterial infection by necroscopy; assay type: organism-based; conditions: in vivo, 336 h
# [9] = test system: Mycobacterium tuberculosis; test: Ratio MIC90 for Mycobacterium tuberculosis H37Ra in presence of isoniazid to MIC90 for Mycobacterium tuberculosis H37Ra in absence of isoniazid; assay type: functional
# [10] = test system: Mycobacterium tuberculosis; test: Antimycobacterial activity against Mycobacterium tuberculosis H37Ra infected in BALB/c mouse assessed as reduction in bacterial activity in spleen at 6.25 mg/kg, po administered for 2 weeks started on day 4 post bacterial infection measured 3 days post last dose co-treated with 1 mg/kg, po isoniazid; assay type: functional
# [11] = test system: Mus musculus; test: Toxicity in BALB/c mouse infected with Mycobacterium tuberculosis H37Ra assessed as change in cholesterol level in serum at 6.25 to 25 mg/kg, po administered for 2 weeks started on day 4 post bacterial infection; assay type: organism-based; conditions: in vivo, 336 h
# [12] = test system: Mycobacterium tuberculosis; test: Antimycobacterial activity against Mycobacterium tuberculosis H37Ra infected in BALB/c mouse assessed as reduction of bacterial load in liver at 12.5 mg/kg, po administered for 2 weeks started on day 4 post bacterial infection measured 3 days post last dose co-treated with 1 mg/kg, po isoniazid; assay type: functional
# [13] = test system: Mus musculus; test: Toxicity in BALB/c mouse infected with Mycobacterium tuberculosis H37Ra assessed as change in phosphate level in serum at 6.25 to 25 mg/kg, po administered for 2 weeks started on day 4 post bacterial infection; assay type: organism-based; conditions: in vivo, 336 h
# [14] = test system: Mycobacterium tuberculosis; test: Antimycobacterial activity against Mycobacterium tuberculosis H37Ra infected in BALB/c mouse assessed as reduction of bacterial load in lung at 25 mg/kg, po administered for 2 weeks started on day 4 post bacterial infection measured 3 days post last dose; assay type: functional
# [15] = test system: Mus musculus; test: Toxicity in BALB/c mouse infected with Mycobacterium tuberculosis H37Ra assessed as change in urea level in serum at 6.25 to 25 mg/kg, po administered for 2 weeks started on day 4 post bacterial infection; assay type: organism-based; conditions: in vivo, 336 h
# [16] = test system: Mycobacterium tuberculosis; test: Antimycobacterial activity against Mycobacterium tuberculosis H37Ra assessed as inhibition of mycobacterial replication at 25 ug/ml after 6 days by microplate Alamar blue assay; assay type: functional; conditions: 144 h
# [17] = test system: Mus musculus; test: Toxicity in BALB/c mouse infected with Mycobacterium tuberculosis H37Ra assessed as change in calcium level in serum at 6.25 to 25 mg/kg, po administered for 2 weeks started on day 4 post bacterial infection in presence of isoniazid; assay type: organism-based; conditions: in vivo, 336 h
# [18] = test system: Mus musculus; test: Toxicity in BALB/c mouse infected with Mycobacterium tuberculosis H37Ra assessed as change in alkaline phosphatase level in serum at 6.25 to 25 mg/kg, po administered for 2 weeks started on day 4 post bacterial infection; assay type: organism-based; conditions: in vivo, 336 h
# [19] = test system: Mycobacterium tuberculosis; test: Antimycobacterial activity against Mycobacterium tuberculosis H37Ra infected in BALB/c mouse assessed as reduction in bacterial activity in lung at 6.25 mg/kg, po administered for 2 weeks started on day 4 post bacterial infection measured 3 days post last dose co-treated with 1 mg/kg, po isoniazid; assay type: functional
# [20] = test system: Mycobacterium tuberculosis; test: Antimycobacterial activity against Mycobacterium tuberculosis H37Ra infected in BALB/c mouse assessed as reduction of bacterial load in spleen at 6.25 to 6.25 mg/kg, po administered for 2 weeks started on day 4 post bacterial infection measured 3 days post last dose; assay type: functional, organism-based
# [21] = test system: Mycobacterium tuberculosis; test: Antimycobacterial activity against Mycobacterium tuberculosis H37Ra assessed as inhibition of mycobacterial replication at 6.25 ug/ml after 6 days by microplate Alamar blue assay in presence of isoniazid; assay type: functional; conditions: 144 h
# [22] = test system: Mycobacterium tuberculosis; test: Antimycobacterial activity against Mycobacterium tuberculosis H37Ra infected in BALB/c mouse assessed as reduction of bacterial load in lung at 6.25 to 6.25 mg/kg, po administered for 2 weeks started on day 4 post bacterial infection measured 3 days post last dose; assay type: functional, organism-based
# [23] = test system: Mus musculus; test: Toxicity in BALB/c mouse infected with Mycobacterium tuberculosis H37Ra assessed as change in phosphate level in serum at 6.25 to 25 mg/kg, po administered for 2 weeks started on day 4 post bacterial infection in presence of isoniazid; assay type: organism-based; conditions: in vivo, 336 h
# [24] = test system: Mus musculus; test: Toxicity in BALB/c mouse infected with Mycobacterium tuberculosis H37Ra assessed as behavioral changes at 6.25 to 25 mg/kg, po administered for 2 weeks started on day 4 post bacterial infection in presence of isoniazid; assay type: organism-based; conditions: in vivo, 336 h
# [25] = test system: Mycobacterium tuberculosis; test: Antimycobacterial activity against Mycobacterium tuberculosis H37Ra infected in BALB/c mouse assessed as reduction of bacterial load in spleen at 25 mg/kg, po administered for 2 weeks started on day 4 post bacterial infection measured 3 days post last dose; assay type: functional
# [26] = test system: Mus musculus; test: Toxicity in BALB/c mouse infected with Mycobacterium tuberculosis H37Ra assessed as change in urea level in serum at 6.25 to 25 mg/kg, po administered for 2 weeks started on day 4 post bacterial infection in presence of isoniazid; assay type: organism-based; conditions: in vivo, 336 h
# [27] = test system: Mus musculus; test: Toxicity in BALB/c mouse infected with Mycobacterium tuberculosis H37Ra assessed as weight loss at 6.25 to 25 mg/kg, po administered for 2 weeks started on day 4 post bacterial infection in presence of isoniazid; assay type: organism-based; conditions: in vivo, 336 h
# [28] = test system: Mus musculus; test: Toxicity in BALB/c mouse infected with Mycobacterium tuberculosis H37Ra assessed as weight loss at 6.25 to 25 mg/kg, po administered for 2 weeks started on day 4 post bacterial infection; assay type: organism-based; conditions: in vivo, 336 h
# [29] = test system: Mus musculus; test: Toxicity in BALB/c mouse infected with Mycobacterium tuberculosis H37Ra assessed as change in amylase level in serum at 6.25 to 25 mg/kg, po administered for 2 weeks started on day 4 post bacterial infection; assay type: organism-based; conditions: in vivo, 336 h
# [30] = test system: Mus musculus; test: Toxicity in BALB/c mouse infected with Mycobacterium tuberculosis H37Ra assessed as gross necroscopy changes at 6.25 to 25 mg/kg, po administered for 2 weeks started on day 4 post bacterial infection; assay type: organism-based; conditions: in vivo, 336 h
# [31] = test system: Mycobacterium tuberculosis; test: Antimycobacterial activity against Mycobacterium tuberculosis H37Ra infected in BALB/c mouse assessed as reduction of bacterial load in spleen at 12.5 mg/kg, po administered for 2 weeks started on day 4 post bacterial infection measured 3 days post last dose co-treated with 1 mg/kg, po isoniazid; assay type: functional
# [32] = test system: Mus musculus; test: Toxicity in BALB/c mouse infected with Mycobacterium tuberculosis H37Ra assessed as change in amylase level in serum at 6.25 to 25 mg/kg, po administered for 2 weeks started on day 4 post bacterial infection in presence of isoniazid; assay type: organism-based; conditions: in vivo, 336 h
# [33] = test system: Mus musculus; test: Toxicity in BALB/c mouse infected with Mycobacterium tuberculosis H37Ra at 6.25 to 25 mg/kg, po administered for 2 weeks started on day 4 post bacterial infection by necroscopy in presence of isoniazid; assay type: organism-based; conditions: in vivo, 336 h
# [34] = test system: Mus musculus; test: Toxicity in BALB/c mouse infected with Mycobacterium tuberculosis H37Ra assessed as change in calcium level in serum at 6.25 to 25 mg/kg, po administered for 2 weeks started on day 4 post bacterial infection; assay type: organism-based; conditions: in vivo, 336 h
# [35] = test system: Mycobacterium tuberculosis; test: Antimycobacterial activity against Mycobacterium tuberculosis H37Ra infected in BALB/c mouse assessed as reduction of bacterial load in liver at 25 mg/kg, po administered for 2 weeks started on day 4 post bacterial infection measured 3 days post last dose; assay type: functional
# [36] = test system: Mus musculus; test: Toxicity in BALB/c mouse infected with Mycobacterium tuberculosis H37Ra assessed as change in creatinine level in serum at 6.25 to 25 mg/kg, po administered for 2 weeks started on day 4 post bacterial infection; assay type: organism-based; conditions: in vivo, 336 h
# [37] = test system: Mycobacterium tuberculosis; test: Antimycobacterial activity against Mycobacterium tuberculosis H37Ra assessed as inhibition of mycobacterial replication at 6.25 ug/ml after 6 days by microplate Alamar blue assay in absence of isoniazid; assay type: functional, organism-based
# [38] = test system: Mycobacterium tuberculosis; test: Antimycobacterial activity against Mycobacterium tuberculosis H37Ra infected in BALB/c mouse assessed as reduction of bacterial load in liver at 6.25 to 6.25 mg/kg, po administered for 2 weeks started on day 4 post bacterial infection measured 3 days post last dose; assay type: functional, organism-based
# [39] = test system: Mus musculus; test: Toxicity in BALB/c mouse infected with Mycobacterium tuberculosis H37Ra assessed as change in creatinine level in serum at 6.25 to 25 mg/kg, po administered for 2 weeks started on day 4 post bacterial infection in presence of isoniazid; assay type: organism-based; conditions: in vivo, 336 h
# [40] = test system: Mus musculus; test: Toxicity in BALB/c mouse infected with Mycobacterium tuberculosis H37Ra assessed as change in alkaline phosphatase level in serum at 6.25 to 25 mg/kg, po administered for 2 weeks started on day 4 post bacterial infection in presence of isoniazid; assay type: organism-based; conditions: in vivo, 336 h
# [41] = test system: Mycobacterium tuberculosis; test: Antimycobacterial activity against Mycobacterium tuberculosis H37Ra assessed as inhibition of mycobacterial replication at 100 ug/ml after 6 days by microplate Alamar blue assay; assay type: functional; conditions: 144 h
# [42] = test system: Mycobacterium avium; test: Antimycobacterial activity against Mycobacterium avium ATCC 25291 assessed as inhibition of mycobacterial replication after 6 days by microplate Alamar blue assay; assay type: functional, Mycobacterium avium subsp. avium ATCC 25291; conditions: ATCC 25291, 144 h
structure (smiles),measurement,setting,value
CCCCCCCCC#Cc1c[nH]c(=O)nc1N,CC50 at 72 h,[1],> 200 µg/mL
same,MIC50,[2],50 µg/mL
same,inhibition at 200 µg/mL,[3],100%
same,inhibition at 50 µg/mL,[4],50%
CCCCCC#Cc1c[nH]c(=O)nc1N,inhibition (INH),[5],95%
same,Activity,[6],Non-toxic
same,Activity,[7],Non-toxic
same,Activity,[8],Non-toxic
same,fractional inhibitory concentration index (FICI),[9],0.37
same,inhibition (INH),[10],40%
same,Activity,[11],Non-toxic
same,inhibition (INH),[12],96%
same,Activity,[13],Non-toxic
same,inhibition in vivo at 25 mg/kg,[14],79%
same,Activity,[15],Non-toxic
same,inhibition at 25 µg/mL,[16],90%
same,Activity,[17],Non-toxic
same,Activity,[18],Non-toxic
same,inhibition (INH),[19],70%
same,Activity,[20],inactive
same,inhibition at 6.25 µg/mL,[21],100%
same,Activity,[22],inactive
same,CC50 at 72 h,[1],> 200 µg/mL
same,Activity,[23],Non-toxic
same,Activity,[24],Non-toxic
same,inhibition in vivo at 25 mg/kg,[25],51%
same,MIC50,[2],12.5 µg/mL
same,Activity,[26],Non-toxic
same,Activity,[27],Non-toxic
same,Activity,[28],Non-toxic
same,Activity,[29],Non-toxic
same,Activity,[30],Non-toxic
same,inhibition (INH),[31],70%
same,Activity,[32],Non-toxic
same,inhibition at 200 µg/mL,[3],100%
same,Activity,[33],Non-toxic
same,Activity,[34],Non-toxic
same,inhibition in vivo at 25 mg/kg,[35],50%
same,Activity,[36],Non-toxic
same,inhibition,[37],inactive
same,Activity,[38],inactive
same,inhibition at 50 µg/mL,[4],100%
same,Activity,[39],Non-toxic
same,Activity,[40],Non-toxic
same,inhibition at 100 µg/mL,[41],100%
CC[C@H]1OC(=O)[C@H](C)[C@@H](O[C@H]2C[C@@](C)(OC)[C@@H](O)[C@H](C)O2)[C@H](C)[C@@H](O[C@@H]2O[C@H](C)C[C@H](N(C)C)[C@H]2O)[C@](C)(OC)C[C@@H](C)C(=O)[C@H](C)[C@@H](O)[C@]1(C)O [CLARITHROMYCIN],MIC90,[42],2 µg/mL
CO[C@H]1/C=C/O[C@@]2(C)Oc3c(C)c(O)c4c(O)c(c(/C=N/N5CCN(C)CC5)c(O)c4c3C2=O)NC(=O)/C(C)=C\C=C\[C@H](C)[C@H](O)[C@@H](C)[C@@H](O)[C@@H](C)[C@H](OC(C)=O)[C@@H]1C [RIFAMPIN],MIC90,[42],2 µg/mL
same,MIC90,[2],0.5 µg/mL
